Common to all, as to test: inhibition of tumour cell growth, NCI panel, 48 h
In experiment [1] the test system is SW-620 colon.
Experiment [2] concerns OVCAR-5 ovarian.
Experiment [3] has as its system IGROV1 ovarian.
Experiment [4] deals with MDA-MB-231 breast.
In experiment [5] the test system is SK-OV-3 ovarian.
Experiment [6] has as its system COLO 205 colon.
Experiment [7] has as its system U251 CNS.
For experiment [8], the system named is OVCAR-8 ovarian.
Experiment [9] concerns HS 578T breast.
In experiment [10] the test system is HCT-116 colon.

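All cell lines were grown in 96-well plates and treated with compound for 48 hours. The concentration for 50% growth inhibition is given as GI50. TGI is the concentration that stops growth completely.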

Turning to `C=C1C(=O)O[C@H]2[C@H]1CC/C(COC(=O)/C=C\C(=O)NCc1ccc(Cn3c(=O)sn(-c4ccc(Cl)cc4)c3=O)cc1)=C\CC[C@@]1(C)O[C@@H]21`, the GI50 in experiment [1] is 0.242 µM; in experiment [2] it was 0.834 µM; in [3], 0.638 µM; in experiment [4] it was 0.758 µM; in experiment [5], 4.04 µM; in experiment [6], 0.564 µM. Also, the GI50 in experiment [7] was 0.713 µM; in [8] it was 0.691 µM; in experiment [9], 0.954 µM; in experiment [10] it was 0.144 µM. The TGI turned out to be 0.915 µM in [1]; 1.75 µM in experiment [2]; 1.36 µM in experiment [3]; 1.76 µM in experiment [4]; 10.7 µM in experiment [5]; 1.59 µM in [6]. In addition, the TGI is 1.6 µM in experiment [7], 2.3 µM in experiment [8], 2.64 µM in experiment [9] and 0.708 µM in [10].
As for `CCSCCCC(=O)O`, the TGI in experiment [1], in experiment [2], in experiment [3], in experiment [4], in experiment [5] and in experiment [6] was greater than 100 µM throughout. Moreover, the TGI in experiment [7], in experiment [8], in [9] and in [10] was greater than 100 µM each time.
As for `CC1(C)CN(CCNc2nccc(-c3c(-c4cccc(O)c4)nc4sccn34)n2)S(=O)(=O)N1`, the GI50 in experiment [1] was 15.7 µM; in [2], greater than 33.2 µM; in experiment [3], 6.58 µM; in [4], 7.94 µM; in experiment [5], 7.86 µM; in experiment [6], 0.448 µM. Further, the GI50 is 8.78 µM in experiment [7], 0.307 µM in experiment [8], 4.72 µM in [9] and 5.05 µM in experiment [10]. Also, the TGI in experiment [1] was greater than 33.2 µM; in experiment [2], greater than 33.2 µM; in experiment [3], greater than 33.2 µM; in experiment [4], greater than 33.2 µM; in [5] it was greater than 33.2 µM; in experiment [6], 7.25 µM. The TGI in [7] was greater than 33.2 µM; in [8], greater than 33.2 µM; in [9], 25 µM; in [10] it was greater than 33.2 µM.
Take `O=C(CC1Sc2ccccc2NC1=O)NNc1ccc(F)cc1` (stereo not given): the GI50 was 38.5 µM in experiment [1]; greater than 100 µM in [2]; 40.5 µM in experiment [3]; 47.6 µM in experiment [4]; greater than 100 µM in experiment [5]; 55.6 µM in experiment [6]. The GI50 in [7] was greater than 100 µM; in experiment [8], 9.78 µM; in experiment [9], 72.4 µM; in [10] it was 77.3 µM. Besides, the TGI in experiment [1], in experiment [2], in experiment [3], in experiment [4], in experiment [5] and in experiment [6] was greater than 100 µM throughout. Moreover, the TGI in experiment [7], in experiment [8], in experiment [9] and in experiment [10] was greater than 100 µM throughout.
For `CC[Si](CC)(CC)OC1[C@@H](O[Si](CC)(CC)CC)[C@@H](CNC(=O)NC)O[C@H]1n1cnc2c(NC(=O)Nc3ccccc3)ncnc21` (stereo not given in full), the GI50 in experiment [1] was 4.1 µM; in experiment [2] it was 4.06 µM; in experiment [3] it was 5.02 µM; in [4], 4.18 µM; in [5], 14.7 µM; in experiment [6], 2.09 µM. The GI50 in experiment [7] was 4.06 µM; in experiment [8], 3.89 µM; in [9], 2.66 µM; in [10] it was 3.26 µM. Moreover, the TGI is greater than 100 µM in experiment [1]; 62.1 µM in [2]; greater than 100 µM in experiment [3]; 56.1 µM in [4]; greater than 100 µM in experiment [5]; 3.62 µM in experiment [6]. Also, the TGI is greater than 100 µM in experiment [7], greater than 100 µM in experiment [8], 39.5 µM in experiment [9] and 15.2 µM in [10].
Turning to `C/C=C(\C)C(=O)O[C@@H]1C=CC(=O)O[C@H]1CNC(=O)[C@H](C)O`, the GI50 in experiment [1] is 10 µM; in experiment [2], 32 µM; in experiment [3] it was 26.6 µM; in experiment [4] it was 21.8 µM; in experiment [5] it was 39.4 µM; in experiment [6] it was 8.96 µM. In addition, the GI50 in experiment [7] is 20.5 µM; in [8], 30.5 µM; in experiment [9], 16.7 µM; in experiment [10], 9.48 µM. Further, the TGI is 25.4 µM in [1]; greater than 73.2 µM in experiment [2]; greater than 78.1 µM in experiment [3]; 45.5 µM in [4]; 98.9 µM in [5]; 27.2 µM in [6]. In addition, the TGI in experiment [7] is 54.7 µM; in experiment [8], greater than 100 µM; in [9] it was 53.8 µM; in experiment [10], 24.2 µM.
Consider `Cc1ccc(C2C3Cc4ccccc4C3=NN2c2ccc(S(=O)(=O)NC(=O)Nc3ccccc3)cc2)cc1` (stereo not given), for which the GI50 in experiment [1] was 13.1 µM; in experiment [2], 14.5 µM; in experiment [3] it was 1.15 µM; in [4] it was 10.8 µM; in experiment [5], 16.1 µM; in experiment [6], 18.6 µM. For the same compound, the GI50 in experiment [7] was 14.3 µM; in [8] it was 21.6 µM; in experiment [9], 17.4 µM; in experiment [10] it was 3.4 µM. For the same compound, the TGI stood at 26 µM in experiment [1]; 30.5 µM in experiment [2]; 19.7 µM in [3]; 22.7 µM in [4]; 31.9 µM in experiment [5]; 53.3 µM in experiment [6]. The TGI was 27.3 µM in [7], greater than 100 µM in experiment [8], 49.9 µM in [9] and 49.1 µM in experiment [10].
Consider `O=C(O)c1[nH]c2c([N+](=O)[O-])cc([N+](=O)[O-])cc2c1C(=O)O`, for which the TGI in experiment [1], in experiment [2], in [3], in experiment [4], in [5] and in experiment [6] was greater than 100 µM each time. Moreover, the TGI in [7], in experiment [8], in experiment [9] and in [10] was greater than 100 µM in each case.
Take `O=C(COc1cccc(/C=C2\Oc3ccc4ccccc4c3C2=O)c1)c1ccc([N+](=O)[O-])cc1`: the GI50 in [1] is 14 µM; in [2], 27.3 µM; in [3], 6.76 µM; in experiment [4], 18.8 µM; in [5] it was 64.2 µM; in [6], 21.8 µM. In addition, the GI50 was 14.7 µM in experiment [7], 14.2 µM in experiment [8], 18.2 µM in experiment [9] and 16.5 µM in experiment [10]. Besides, the TGI in experiment [1] is 27 µM; in experiment [2], greater than 100 µM; in experiment [3], 40.7 µM; in experiment [4], 68.8 µM; in [5], greater than 100 µM; in experiment [6], greater than 100 µM. Besides, the TGI was 27.8 µM in experiment [7], 37.2 µM in experiment [8], 56.1 µM in experiment [9] and 40.9 µM in experiment [10].
Turning to `Cc1ccc2c(c1)C(O)(c1ccccc1)CCS2` (stereo not given), the TGI in experiment [1] was greater than 100 µM; in experiment [2], 80.6 µM; in experiment [3] it was 65.7 µM; in experiment [4] it was 39.8 µM; in experiment [5], greater than 100 µM; in experiment [6], greater than 100 µM. Further, the TGI in experiment [7] was 45.8 µM; in experiment [8] it was greater than 100 µM; in experiment [9] it was greater than 100 µM; in experiment [10], 42.5 µM.
On to `Nc1nc(N)c(-c2ccc(Cl)c(Cl)c2)c(CP(Cl)(Cl)(Cl)Br)n1`, for which the GI50 was 4.2 µM in [1]; 6.96 µM in [2]; 8.92 µM in experiment [3]; 9.62 µM in [4]; 86.7 µM in experiment [5]; 10.4 µM in experiment [6]. For the same compound, the GI50 in [7] was 4.8 µM; in experiment [8], 6.51 µM; in experiment [9], 24.4 µM; in experiment [10], 3.52 µM. Moreover, the TGI in experiment [1] is greater than 100 µM; in [2] it was greater than 100 µM; in experiment [3] it was 61.8 µM; in [4] it was greater than 100 µM; in [5], greater than 100 µM; in experiment [6], greater than 100 µM. In addition, the TGI in [7], in experiment [8], in [9] and in experiment [10] was greater than 100 µM each time.
In the case of `CCOC(=O)c1cc2c(n1Cc1cc(OC)cc(OC)c1)-c1oncc1CC2`, the GI50 in experiment [1] was 0.0859 µM; in experiment [2] it was 0.474 µM; in experiment [3], 0.226 µM; in [4] it was 1.09 µM; in [5], 0.309 µM; in experiment [6], 0.182 µM. For the same compound, the GI50 was 0.262 µM in experiment [7], 0.475 µM in [8], 0.156 µM in experiment [9] and 0.157 µM in [10]. The TGI was greater than 100 µM in experiment [1]; greater than 100 µM in experiment [2]; greater than 100 µM in experiment [3]; greater than 95.8 µM in experiment [4]; greater than 100 µM in experiment [5]; 0.616 µM in experiment [6]. For the same compound, the TGI in experiment [7] was greater than 100 µM; in [8] it was greater than 100 µM; in experiment [9] it was greater than 96.2 µM; in experiment [10], greater than 100 µM.
Consider `CCC(C(=O)[C@@H](C)[C@@H](O)[C@H](C)[C@@H]1O[C@@H]([C@@H](CC)C(=O)ONC(=O)c2ccccc2)CC[C@@H]1C)[C@H]1O[C@]2(C=CC(=O)[C@]3(CC[C@@](C)([C@H]4CC[C@](O)(CC)[C@H](C)O4)O3)O2)[C@H](C)C[C@@H]1C` (stereo not given in full), for which the GI50 in experiment [1] was 0.582 µM; in experiment [2], 0.498 µM; in [3] it was 0.198 µM; in [4], 0.295 µM; in [5], 2.79 µM; in [6], 0.122 µM. The GI50 in experiment [7] was 0.11 µM; in experiment [8] it was 0.251 µM; in [9], 0.0991 µM; in experiment [10] it was 0.36 µM. Moreover, the TGI was found to be 2.71 µM in [1]; 2.18 µM in experiment [2]; 0.631 µM in experiment [3]; 1.63 µM in experiment [4]; 10.1 µM in experiment [5]; 1.78 µM in experiment [6]. In addition, the TGI in [7] is 1.6 µM; in experiment [8] it was 2.77 µM; in [9] it was 2.58 µM; in experiment [10], 1.91 µM.
Turning to `CCCCC[C@H]1C/C=C2/C(=O)C(Cl)=C[C@@H]2C/C=C\CCCC(=O)O1`, the GI50 in experiment [1] was 0.181 µM; in experiment [2] it was 0.649 µM; in experiment [3] it was 0.444 µM; in experiment [4] it was 0.642 µM; in [5] it was 0.907 µM; in [6] it was 0.438 µM. Also, the GI50 in [7] is 0.33 µM; in experiment [8], 0.328 µM; in experiment [9] it was 1.1 µM; in experiment [10], 0.201 µM. Also, the TGI in experiment [1] is 1.3 µM; in experiment [2] it was 1.4 µM; in experiment [3] it was 1.24 µM; in [4] it was 2.24 µM; in [5] it was 2.68 µM; in experiment [6] it was 0.975 µM. For the same compound, the TGI in experiment [7] stood at 0.737 µM; in experiment [8], 1.65 µM; in experiment [9], 25 µM; in experiment [10], 0.57 µM.
As to `CC(=N\O)/C(C)=N/O.CC(=N\O)/C(C)=N/O.[Fe].[NH2-].c1c[nH]cn1`, the GI50 in [1], in experiment [2], in experiment [3], in [4], in experiment [5] and in experiment [6] was greater than 100 µM each time. Further, the GI50 in experiment [7], in [8], in [9] and in experiment [10] was greater than 100 µM throughout. For the same compound, the TGI in experiment [1], in [2], in experiment [3], in experiment [4], in experiment [5] and in experiment [6] was greater than 100 µM in each case. The TGI in experiment [7], in experiment [8], in experiment [9] and in [10] was greater than 100 µM each time.
